Work on C=C1CCN([C@H](C)[C@](O)(Cn2cncn2)c2ccc(F)cc2F)CC1 yielded a solubility (mole fraction) (in DMF, 288.15 K) of 0.281, a solubility (mole fraction) (in DMF, 293.15 K) of 0.298 and a solubility (mole fraction) (in DMF, 298.15 K) of 0.316. It also gave a solubility (mole fraction) (in DMF, 303.15 K) of 0.334, a solubility (mole fraction) (in DMF, 308.15 K) of 0.353 and a solubility (mole fraction) (in PEG-400, 288.15 K) of 0.171. For the same compound, the solubility (mole fraction) (in PEG-400, 293.15 K) was 0.182, the solubility (mole fraction) (in PEG-400, 298.15 K) was 0.194 and the solubility (mole fraction) (in PEG-400, 303.15 K) was 0.206. The solubility (mole fraction) (in PEG-400, 308.15 K) was 0.219, the solubility (mole fraction) (in THF, 288.15 K) was 0.321 and the solubility (mole fraction) (in THF, 293.15 K) was 0.335. It also gave a solubility (mole fraction) (in THF, 298.15 K) of 0.351, a solubility (mole fraction) (in THF, 303.15 K) of 0.367 and a solubility (mole fraction) (in THF, 308.15 K) of 0.382. For the same compound, the solubility (mole fraction) (in acetone, 288.15 K) was 0.243, the solubility (mole fraction) (in acetone, 293.15 K) was 0.261 and the solubility (mole fraction) (in acetone, 298.15 K) was 0.28. For the same compound, the solubility (mole fraction) (in acetone, 303.15 K) was 0.301, the solubility (mole fraction) (in acetone, 308.15 K) was 0.321 and the solubility (mole fraction) (in acetonitrile, 288.15 K) was 0.0874. The solubility (mole fraction) (in acetonitrile, 293.15 K) was 0.109, the solubility (mole fraction) (in acetonitrile, 298.15 K) was 0.136 and the solubility (mole fraction) (in acetonitrile, 303.15 K) was 0.168. For the same compound, the solubility (mole fraction) (in acetonitrile, 308.15 K) was 0.204, the solubility (mole fraction) (in dichloromethane, 288.15 K) was 0.321 and the solubility (mole fraction) (in dichloromethane, 293.15 K) was 0.34. For the same compound, the solubility (mole fraction) (in dichloromethane, 298.15 K) was 0.358, the solubility (mole fraction) (in dichloromethane, 303.15 K) was 0.379 and the solubility (mole fraction) (in dichloromethane, 308.15 K) was 0.4. For the same compound, the solubility (mole fraction) (in ethanol, 288.15 K) was 0.122, the solubility (mole fraction) (in ethanol, 293.15 K) was 0.144 and the solubility (mole fraction) (in ethanol, 298.15 K) was 0.172. It also gave a solubility (mole fraction) (in ethanol, 303.15 K) of 0.203, a solubility (mole fraction) (in ethanol, 308.15 K) of 0.242 and a solubility (mole fraction) (in ethyl acetate, 288.15 K) of 0.231. It also gave a solubility (mole fraction) (in ethyl acetate, 293.15 K) of 0.251, a solubility (mole fraction) (in ethyl acetate, 298.15 K) of 0.272 and a solubility (mole fraction) (in ethyl acetate, 303.15 K) of 0.297. The solubility (mole fraction) (in ethyl acetate, 308.15 K) was 0.321, the solubility (mole fraction) (in isopropanol, 288.15 K) was 0.0849 and the solubility (mole fraction) (in isopropanol, 293.15 K) was 0.105. For the same compound, the solubility (mole fraction) (in isopropanol, 298.15 K) was 0.125, the solubility (mole fraction) (in isopropanol, 303.15 K) was 0.152 and the solubility (mole fraction) (in isopropanol, 308.15 K) was 0.184. It also gave a solubility (mole fraction) (in methanol, 288.15 K) of 0.176, a solubility (mole fraction) (in methanol, 293.15 K) of 0.195 and a solubility (mole fraction) (in methanol, 298.15 K) of 0.214. It also gave a solubility (mole fraction) (in methanol, 303.15 K) of 0.236, a solubility (mole fraction) (in methanol, 308.15 K) of 0.259 and a solubility (mole fraction) (in n-butanol, 288.15 K) of 0.113. The solubility (mole fraction) (in n-butanol, 293.15 K) was 0.135, the solubility (mole fraction) (in n-butanol, 298.15 K) was 0.159 and the solubility (mole fraction) (in n-butanol, 303.15 K) was 0.185. For the same compound, the solubility (mole fraction) (in n-butanol, 308.15 K) was 0.218, the solubility (mole fraction) (in n-propanol, 288.15 K) was 0.12 and the solubility (mole fraction) (in n-propanol, 293.15 K) was 0.142. It also gave a solubility (mole fraction) (in n-propanol, 298.15 K) of 0.164, a solubility (mole fraction) (in n-propanol, 303.15 K) of 0.191 and a solubility (mole fraction) (in n-propanol, 308.15 K) of 0.222. For the same compound, the solubility (mole fraction) (in propylene glycol, 288.15 K) was 0.0278, the solubility (mole fraction) (in propylene glycol, 293.15 K) was 0.031 and the solubility (mole fraction) (in propylene glycol, 298.15 K) was 0.0343. It also gave a solubility (mole fraction) (in propylene glycol, 303.15 K) of 0.0384, a solubility (mole fraction) (in propylene glycol, 308.15 K) of 0.0424 and a solubility (mole fraction) (in transcutol, 288.15 K) of 0.218. For the same compound, the solubility (mole fraction) (in transcutol, 293.15 K) was 0.233, the solubility (mole fraction) (in transcutol, 298.15 K) was 0.247 and the solubility (mole fraction) (in transcutol, 303.15 K) was 0.262. The solubility (mole fraction) (in transcutol, 308.15 K) was 0.276, the solubility (mole fraction) (in water, 288.15 K) was 1.08e-06 and the solubility (mole fraction) (in water, 293.15 K) was 1.4e-06. For the same compound, the solubility (mole fraction) (in water, 298.15 K) was 1.77e-06, the solubility (mole fraction) (in water, 303.15 K) was 2.29e-06 and the solubility (mole fraction) (in water, 308.15 K) was 2.91e-06.

Reference: BigSolDB 2.1
